Patent US20220396569A1 (Carmot Therapeutics, Inc., priority 2021, published 2022)

The compounds below were run against T1, human GLP-1 receptor (Homo sapiens, UniProt P43220) (assay: GLP-1R cAMP Assay (HitHunter cAMP accumulation)). Details: EC50, cAMP accumulation, CHO cells stably overexpressing human GLP-1 receptor, 30 min treatment.
T1 construct: expressed in transfected cells
Type: cell-based
In short: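 CHO cells stably expressing human GLP-1R, 10,000 cells/well in HBSS with 10 mM HEPES and 625 μM IBMX, were mixed with anti-cAMP antibody reagent. Compound was applied as a 20-point dose response in triplicate for 30 min. After lysis and overnight detection, luminescence was read and dose-response curves analysed.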

T1 sequence (P43220 24-463): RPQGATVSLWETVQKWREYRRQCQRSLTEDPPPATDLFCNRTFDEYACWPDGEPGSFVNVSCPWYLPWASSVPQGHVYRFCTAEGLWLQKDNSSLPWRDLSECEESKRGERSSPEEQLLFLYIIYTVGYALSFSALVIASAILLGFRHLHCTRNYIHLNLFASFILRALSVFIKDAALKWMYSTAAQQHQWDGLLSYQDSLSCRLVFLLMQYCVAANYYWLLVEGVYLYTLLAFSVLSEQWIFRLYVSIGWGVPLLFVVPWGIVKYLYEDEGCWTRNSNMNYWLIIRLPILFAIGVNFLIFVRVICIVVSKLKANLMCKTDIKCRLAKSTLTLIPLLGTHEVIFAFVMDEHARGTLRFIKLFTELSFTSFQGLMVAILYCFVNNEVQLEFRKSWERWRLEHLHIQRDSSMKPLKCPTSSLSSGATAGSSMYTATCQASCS

SMILES	EC50 [nM]
O=C(O)c1cc(F)c2nc(CN3CC[C@H](Oc4ccnc(COc5ccc(Cl)cc5F)n4)C3)n(CC3CCO3)c2c1 (stereo partly drawn) [Compound 361, 2-{[(3S)-3-({2-[(4-chloro-2-fluorophenoxy)methyl]pyrimidin-4-yl}oxy)pyrrolidin-1-yl]methyl}-4-fluoro-1-[(oxetan-2-yl)methyl]-1H-1,3-benzodiazole-6-carboxylic acid]	< 50

Same assay, conditions: cAMP accumulation, CHO cells stably overexpressing human GLP-1 receptor, 30 min treatment; read-out: EC50

SMILES	EC50 [nM]
CCn1cncc1Cn1c(CN2CC=C(c3cccc(COc4ccc(Cl)cc4Cl)n3)C2)nc2ccc(C(=O)O)cc21 [Compound 385, 2-[(3-{6-[(2,4-dichlorophenoxy)methyl]pyridin-2-yl}-2,5-dihydro-1H-pyrrol-1-yl)methyl]-1-[(1-ethyl-1H-imidazol-5-yl)methyl]-1H-1,3-benzodiazole-6-carboxylic acid]	< 50
O=C(O)c1ccc2nc(CN3CCC(c4ccc(F)c(COc5ccc(Cl)cc5Cl)c4)C3)n(C[C@@H]3CCO3)c2c1 (stereo partly drawn) [Compound 389, 2-[(3-{3-[(2,4-dichlorophenoxy)methyl]-4-fluorophenyl}pyrrolidin-1-yl)methyl]-1-{[(2S)-oxetan-2-yl]methyl}-1H-1,3-benzodiazole-6-carboxylic acid]	< 50
N#CCC1(Cn2c(CN3CC=C(c4ccc(F)c(COc5ccc(C#N)cc5F)n4)C3)nc3c(F)cc(C(=O)O)cc32)CC1 [Compound 424, 2-[(3-{6-[(4-cyano-2-fluorophenoxy)methyl]-5-fluoropyridin-2-yl}-2,5-dihydro-1H-pyrrol-1-yl)methyl]-1-{[1-(cyanomethyl)cyclopropyl]methyl}-4-fluoro-1H-1,3-benzodiazole-6-carboxylic acid]	< 50
O=C(O)c1ccc2nc(CN3CC=C(c4ccc(F)c(COc5ccc(Cl)cc5Cl)c4)C3)n(C[C@@H]3CCO3)c2c1 [Compound 388, 2-[(3-{3-[(2,4-dichlorophenoxy)methyl]-4-fluorophenyl}-2,5-dihydro-1H-pyrrol-1-yl)methyl]-1-{[(2S)-oxetan-2-yl]methyl}-1H-1,3-benzodiazole-6-carboxylic acid]	< 50
O=C(O)c1ccc2nc(CN3CC(Oc4ccnc(COc5ccc(Cl)cc5Cl)c4)C3)n(Cc3ccno3)c2c1 [Compound 236, 2-{[3-({2-[(2,4-dichlorophenoxy)methyl]pyridin-4-yl}oxy)azetidin-1-yl]methyl}-1-[(1,2-oxazol-5-yl)methyl]-1H-1,3-benzodiazole-6-carboxylic acid]	< 50
N#CCC1(Cn2c(CN3CC[C@@H](c4ccnc(COc5ccc(Cl)cc5F)c4)C3)nc3ccc(C(=O)O)cc32)CC1 [Compound 431, 2-{[(3S)-3-{2-[(4-chloro-2-fluorophenoxy)methyl]pyridin-4-yl}pyrrolidin-1-yl]methyl}-1-{[1-(cyanomethyl)cyclopropyl]methyl}-1H-1,3-benzodiazole-6-carboxylic acid]	< 50
N#Cc1ccc(OCc2nc(C3CCN(Cc4nc5ccc(C(=O)O)cc5n4C[C@@H]4CCO4)C3)ccc2F)c(F)c1 (stereo partly drawn) [Compound 410, 2-[(3-{6-[(4-cyano-2-fluorophenoxy)methyl]-5-fluoropyridin-2-yl}pyrrolidin-1-yl)methyl]-1-{[(2S)-oxetan-2-yl]methyl}-1H-1,3-benzodiazole-6-carboxylic acid]	< 50
O=C(O)c1cc(F)c2nc(CN3CC[C@H](c4cccc(COc5ccc(Cl)cc5F)n4)C3)n(C[C@@H]3CCO3)c2c1 [Compound 442, 2-{[(3S)-3-{6-[(4-chloro-2-fluorophenoxy)methyl]pyridin-2-yl}pyrrolidin-1-yl]methyl}-4-fluoro-1-{[(2S)-oxetan-2-yl]methyl}-1H-1,3-benzodiazole-6-carboxylic acid]	< 50
N#Cc1ccc(OCc2cccc([C@H]3CCN(Cc4nc5c(F)cc(C(=O)O)cc5n4C[C@@H]4CCO4)C3)c2)c(F)c1 [Compound 444, 2-{[(3R)-3-{3-[(4-cyano-2-fluorophenoxy)methyl]phenyl}pyrrolidin-1-yl]methyl}-4-fluoro-1-{[(2S)-oxetan-2-yl]methyl}-1H-1,3-benzodiazole-6-carboxylic acid]	> 500
N#Cc1ccc(OCc2nc([C@H]3CCN(Cc4nc5c(F)cc(C(=O)O)cc5n4C[C@@H]4CCO4)C3)ccc2F)c(F)c1 [Compound 455, 2-{[(3S)-3-{6-[(4-cyano-2-fluorophenoxy)methyl]-5-fluoropyridin-2-yl}pyrrolidin-1-yl]methyl}-4-fluoro-1-{[(2S)-oxetan-2-yl]methyl}-1H-1,3-benzodiazole-6-carboxylic acid]	50 to 500
O=C(O)c1ccc2nc(CN3CC=C(c4cc(COc5ccc(Cl)cc5F)ccn4)C3)n(C[C@@H]3CCO3)c2c1 [Compound 393]	50 to 500
CCn1cncc1Cn1c(CN2CC[C@@H](Oc3ccnc(COc4ccc(Cl)cc4Cl)c3)C2)nc2ccc(C(=O)O)cc21 [Compound 245, 2-{[(3R)-3-({2-[(2,4-dichlorophenoxy)methyl]pyridin-4-yl}oxy)pyrrolidin-1-yl]methyl}-1-[(1-ethyl-1H-imidazol-5-yl)methyl]-1H-1,3-benzodiazole-6-carboxylic acid]	< 50
CCn1cncc1Cn1c(CN2CC(Oc3cccc(COc4ccc(Cl)cc4Cl)c3)C2)nc2ccc(C(=O)O)cc21 [Compound 210, 2-[(3-{3-[(2,4-dichlorophenoxy)methyl]phenoxy}azetidin-1-yl)methyl]-1-[(1-ethyl-1H-imidazol-5-yl)methyl]-1H-1,3-benzodiazole-6-carboxylic acid]	< 50

Further lines, results first:

EC50 [nM]	SMILES
< 50	N#Cc1ccc(OCc2nc([C@@H]3C[C@@H](CF)N(Cc4nc5ccc(C(=O)O)cc5n4C[C@@H]4CCO4)C3)ccc2F)c(F)c1 (single isomer, unassigned) [Compound 527]
< 50	O=C(O)c1ccc2nc(CN3CCC(Cn4ccc(COc5ccc(Cl)cc5Cl)n4)CC3)n(C[C@@H]3CCO3)c2c1 [Example 127, (S)-2-((4-((3-((2,4-dichlorophenoxy)methyl)-1H-pyrazol-1-yl)methyl)piperidin-1-yl)methyl)-1-(oxetan-2-ylmethyl)-1H-benzo[d]imidazole-6-carboxylic acid]
50 to 500	CCn1cncc1Cn1c(CN2CCC(c3cccc(Oc4ccccc4)c3)C2)nc2ccc(C(=O)O)cc21 (racemic) [Example 134, 1-((1-Ethyl-1H-imidazol-5-yl)methyl)-2-((3-(3-phenoxyphenyl)pyrrolidin-1-yl)methyl)-1H-benzo[d]imidazole-6-carboxylic acid]
50 to 500	O=C(O)c1ccc2nc(CN3CCC(c4cccc(Oc5ccccc5)c4)C3)n(C[C@@H]3CCO3)c2c1 (stereo partly drawn) [Example 119, 1-(((S)-Oxetan-2-yl)methyl)-2-((3-(3-phenoxyphenyl)pyrrolidin-1-yl)methyl)-1H-benzo[d]imidazole-6-carboxylic acid]
< 50	O=C(O)c1ccc2nc(CN3CC(Oc4cccc(COc5ccc(Cl)cc5Cl)c4)C3)n(C[C@@H]3CCO3)c2c1 [Example 192, (S)-2-((3-(3-((2,4-Dichlorophenoxy)methyl)phenoxy)azetidin-1-yl)methyl)-1-(oxetan-2-ylmethyl)-1H-benzo[d]imidazole-6-carboxylic acid]
< 50	O=C(O)c1cc(F)c2nc(CN3CC[C@H](c4ccnc(COc5ccc(Cl)cc5F)c4)C3)n(C[C@@H]3CCO3)c2c1 (single isomer, unassigned) [Example 427]
< 50	O=C(O)c1ccc2nc(CN3CCC(c4cc(COc5ccc(Cl)cc5F)ccn4)C3)n(C[C@@H]3CCO3)c2c1 (stereo partly drawn) [Example 397, 2-((3-(4-((4-Chloro-2-fluorophenoxy)methyl)pyridin-2-yl)pyrrolidin-1-yl)methyl)-1-(((S)-oxetan-2-yl)methyl)-1H-benzo[d]imidazole-6-carboxylic acid]
< 50	N#Cc1ccc(OCc2nccc(C3=CCN(Cc4nc5ccc(C(=O)O)cc5n4C[C@@H]4CCO4)C3)n2)c(F)c1 [Example 395, (S)-2-((3-(2-((4-Cyano-2-fluorophenoxy)methyl)pyrimidin-4-yl)-2,5-dihydro-1H-pyrrol-1-yl)methyl)-1-(oxetan-2-ylmethyl)-1H-benzo[d]imidazole-6-carboxylic acid]
< 50	N#Cc1ccc(OCc2nccc(Oc3ccc(Cc4nc5c(F)cc(C(=O)O)cc5n4C[C@@H]4CCO4)cc3F)n2)c(F)c1 [Compound 539, (S)-2-(4-((2-((4-cyano-2-fluorophenoxy)methyl)pyrimidin-4-yl)oxy)-3-fluorobenzyl)-4-fluoro-1-(oxetan-2-ylmethyl)-1H-benzo[d]imidazole-6-carboxylic acid]
50 to 500	CC1(c2ccc(Cl)cc2F)Oc2cccc(CC3CCN(Cc4nc5ccc(C(=O)O)cc5n4C[C@@H]4CCO4)CC3)c2O1 (stereo partly drawn) [Example 201, 2-((4-((2-(4-Chloro-2-fluorophenyl)-2-methylbenzo[d][1,3]dioxol-4-yl)methyl)piperidin-1-yl)methyl)-1-(((S)-oxetan-2-yl)methyl)-1H-benzo[d]imidazole-6-carboxylic acid]
< 50	O=C(O)c1cc(F)c2nc(CN3CCC(c4nc(COc5ccc(Cl)cc5F)ccc4F)C3)n(C[C@@H]3CCO3)c2c1 (stereo partly drawn) [Compound 457, 2-[(3-{6-[(4-chloro-2-fluorophenoxy)methyl]-3-fluoropyridin-2-yl}pyrrolidin-1-yl)methyl]-4-fluoro-1-{[(2S)-oxetan-2-yl]methyl}-1H-1,3-benzodiazole-6-carboxylic acid]
< 50	N#Cc1ccc(OCc2nc(N3CC[C@H](Cc4nc5ccc(C(=O)O)cc5n4C[C@@H]4CCO4)C3)ccc2F)c(F)c1 [Compound 530]
50 to 500	N#Cc1ccc(OCc2nc([C@@H]3C[C@@H](CF)N(Cc4nc5ccc(C(=O)O)cc5n4C[C@@H]4CCO4)C3)ccc2F)c(F)c1 (single isomer, unassigned) [Compound 526]
< 50	N#CCC1(Cn2c(Cc3ccc(Oc4ccnc(COc5ccc(C#N)cc5F)n4)cc3F)nc3ccc(C(=O)O)cc32)CC1 [Compound 468, 2-{[4-({2-[(4-cyano-2-fluorophenoxy)methyl]pyrimidin-4-yl}oxy)-2-fluorophenyl]methyl}-1-{[1-(cyanomethyl)cyclopropyl]methyl}-1H-1,3-benzodiazole-6-carboxylic acid]
